According to patent publication US11566041B2, “Nucleotide prodrug compounds” (Ligand Pharmaceuticals Incorporated, priority 2020, dated 2023):

Experiments:
[1] = Tissue distribution following oral administration: blood metabolite nucleoside and liver nucleoside triphosphate levels; set-up: species or system rats; conditions: rat, in vivo, 5 mg/kg; for Blood Nuc level at 1 hour / Liver NTP level at 1 hour / Blood Nuc level at 5 hours / Liver NTP level at 5 hours: po
Experimental: IV Remdesivir (2 mg/kg), oral Remdesevir (5 mg/kg) and oral test compound (5 mg/kg) were administered to rats. Oral administration was to fasted rats by oral gavage. Plasma concentrations of the metabolite nucleoside in circulation were determined by HPLC-UV, and the liver concentrations of the active triphosphate were measured by LC-MS using standard chromatography methods.
FIG. 4 is a graph showing the ratio of (concentration of corresponding nucleoside in the liver)/(concentration of corresponding nucleoside in the blood) after 1 and 5 hours from the second study.
Table 1 contains the blood and liver levels after 1 and 5 hours for a number of test compounds compared to oral Remdesivir.

[2] = Tissue distribution following inhalation administration: blood and lung metabolite nucleoside and lung triphosphate levels; type: in vivo, rats
Experimental: Remdesivir or the indicated test compound was administered at 2 mg/kg to rats by an inhalation route. The lung concentrations of the metabolite nucleoside and its triphosphate were measured by LC-MS using standard chromatography methods.

Blood Nuc level at 1 hour [1] | Liver NTP level at 1 hour [1] [x] | Blood Nuc level at 5 hours [1] [x] | Liver NTP level at 5 hours [1] [x] | SMILES | Lung levels of the metabolite nucleoside, exposure relative to Remdesivir ([2]; rat, in vivo, 2 mg/kg) | Nucleoside triphosphate levels in the lung ([2]; rat, in vivo, 2 mg/kg) | Liver exposure of nucleoside triphosphate relative to IV or oral Remdesivir [1] | Nucleoside triphosphate levels in the lung ([2]; rats, 2 mg/kg inhalation route, FIG. 7)
<1x | ≥2 | <1 | ≥2 | CCOC(=O)c1ccccc1COP1(=O)OC[C@H]2O[C@@](C#N)(c3ccc4c(N)ncnn34)[C@H](O)[C@@H]2O1 (stereo partly drawn) [Compound 101, Ethyl 2-((((4aR,6R,7R,7aS)-6-(4-aminopyrrolo[2,1-f][1,2,4]triazin-7-yl)-6-cyano-7-hydroxy-2-oxidotetrahydro-4H-furo[3,2-d][1,3,2]dioxaphosphinin-2-yl)oxy)methyl)benzoate] |  |  |  | 
≥2x | ≥2 | ≥2 | ≥2 | CCOC(=O)c1ccccc1COP1(=O)OC[C@H]2O[C@@](C#N)(c3ccc4c(N)ncnn34)[C@H](OC(=O)CC)[C@@H]2O1 (stereo partly drawn) [Compound 106, Ethyl 2-((((4aR,6R,7R,7aR)-6-(4-aminopyrrolo[2,1-f][1,2,4]triazin-7-yl)-6-cyano-2-oxido-7-(propionyloxy)tetrahydro-4H-furo[3,2-d][1,3,2]dioxaphosphinin-2-yl)oxy)methyl)benzoate] |  |  |  | 
 |  |  |  | CCC(CC)COC(=O)[C@H](C)N[P@](=O)(OC[C@H]1O[C@@](C#N)(c2ccc3c(N)ncnn23)[C@H](O)[C@@H]1O)Oc1ccccc1 [Remdesivir, reference compound] |  |  |  | below the level of quantitation

SMILES | Blood Nuc level at 1 hour [1] | Liver NTP level at 1 hour [1] [x] | Blood Nuc level at 5 hours [1] [x] | Liver NTP level at 5 hours [1] [x] | Lung levels of the metabolite nucleoside, exposure relative to Remdesivir ([2]; rat, in vivo, 2 mg/kg) | Nucleoside triphosphate levels in the lung ([2]; rat, in vivo, 2 mg/kg) | Liver exposure of nucleoside triphosphate relative to IV or oral Remdesivir [1] | Nucleoside triphosphate levels in the lung ([2]; rats, 2 mg/kg inhalation route, FIG. 7)
CCOC(=O)c1ccccc1COP1(=O)OC[C@H]2O[C@@](C#N)(c3ccc4c(N)ncnn34)[C@H](OC(C)=O)[C@@H]2O1 (stereo partly drawn) [Compound 105, Ethyl 2-((((4aR,6R,7R,7aR)-7-acetoxy-6-(4-aminopyrrolo[2,1-f][1,2,4]triazin-7-yl)-6-cyano-2-oxidotetrahydro-4H-furo[3,2-d][1,3,2]dioxaphosphinin-2-yl)oxy)methyl)benzoate] | ≥2x* | ≥2 | ≥2 | ≥2 | more than 4 times | significant lung exposure of the triphosphate | significantly greater liver exposure than either IV or oral Remdesivir | 
